Source: patent EP4818330A1, “PHARMACEUTICAL PREPARATION FOR DIAGNOSING AND TREATING ALZHEIMER'S DISEASE” (Shanghai East Hospital Tongji University, priority 2023, dated 2025)
Values joined by “and” are separate entries in the source; they are usually repeats but may differ in a detail not shown here. Equal entries are not always repeated. Where two headings read alike, the source gives them in different places.

How the values were obtained:
[1] = tested on: APP/PS1 transgenic mice; assay: Dendritic spine density of hippocampal neurons in brain slices of AD mice; format: in vivo
Experimental: Thy1-GFP mice are commonly used in neuroscience research. The fluorescence labeling of GFP facilitates convenient observation and tracking of specific cell types, especially neurons. APP/PS1 transgenic mice (an animal model of Alzheimer's disease) were crossed with Thy1-GFP mice. The crossed mice aged 5 months were intraperitoneally injected with a compound solution at a concentration of 2.5 mg/kg for 1 month continuously. Subsequently, the crossed mice aged 6 months were subjected to behavioral test (Morris water maze MWM experiment) to evaluate learning and memory abilities (as shown in FIG. 22).
After the water maze behavioral test, the mice were anesthetized and perfused, and then brain tissue sections were taken. The density of neuronal dendritic spines was observed under a confocal fluorescence microscope using GFP green fluorescence.

[2] = Drug content in brain tissue after single intraperitoneal administration; format: in vivo, Balb/c strain mice; details: mice; for concentration at 0.5 h: brain, ip
Experimental: (§1) Research method: first, Balb/c strain mice were administered with a single intraperitoneal injection at a concentration of 2.5 mg/kg, and the content of the compound in serum was detected at 0.25, 0.5, 1, 2, 4, 6, 8 and 24 h after injection; second, brain tissues of mice at 0.5, 4 and 24 h after injection were collected to detect the compound content, so as to evaluate the blood-brain barrier penetration rate.

[3] = tested on: primary neurons; assay: Dendritic spine density of neurons in the in vitro AD model (APPsw lentivirus); format: cell-based, mouse
Experimental: The extraction and culture of primary neurons were the same as those hereinabove (toxicity experiment section). Transfection of neurons using plasmid calcium: A neuron culture medium (half medium change) was aspirated and placed in a 37°C water bath for later use, and Neurobasel A was added to a 24-well plate. 500 ng of plasmid DNA was dissolved in 12.5 µl of CaCl2 solution, and then centrifuged. 12.5 µl of HBS was added to the EP tube, and then centrifuged. The mixed solution hereinabove was added to the 24-well plate. The 24-well plate was gently shaken, and then placed back into a 37°C incubator to stand for 90 min. […] On day 6 of in vitro culture (DIV6), the original medium was semi-quantitatively collected, and the lentivirus stock solution (100 µl) was diluted with the original medium (10 ml) at a ratio of […]. […] Primary neurons were transfected with calcium-transformed GFP plasmids on day 4 of in vitro culture to enable the neurons to carry green fluorescence for observing neuronal dendrites. […] After 14 days of in vitro culture, the neurons were fixed with 4% PFA, photographed under a 100× oil immersion lens of a confocal fluorescence microscope, and the dendritic spine density per 10 µm length of the neurons was calculated by observing GFP green fluorescence.

[4] = Blood drug concentration in mice after single intraperitoneal administration; format: in vivo, Balb/c strain mice
Experimental: Compound preparation: A compound of Formula I was commercially available, which was dissolved and diluted with a solution comprising 10% DMSO+90% (20% HP-β-CD).
as §1

[5] = CCK8 cell viability (toxicity) assay in 293T cell line; format: cell-based; details: human, 293T cells, 293T, 24 h, CCK8, three replicate wells
Description: The CCK8 cell viability assay (CCK8) was adopted. Its principle is mainly based on the reduction reaction of WST-8 (chemical name: 2-(2-methoxy-4-nitrophenyl)-3-(4-nitrophenyl)-5-(2,4-disulfophenyl)-2H-tetrazolium monosodium salt). In the presence of living cells, WST-8 can be reduced by dehydrogenases in mitochondria to generate a highly water-soluble orange-yellow formazan product. The color intensity is directly proportional to the number of living cells, wherein the quantity of living cells can be indirectly reflected by measuring the absorbance of formazan products (typically at a wavelength of 450 nm). The CCK-8 assay is widely used in cell proliferation assay, cytotoxicity assay and tumor drug sensitivity test.
In in vitro experiments, the compound stock solution was prepared into 10 mM with DMSO and diluted with a culture medium before use. The 293T cell line was used for preliminary concentration screening of the compound, wherein concentration gradients were set as follows: 5 µmol, 10 µmol, 20 µmol, 40 µmol, 80 µmol and 160 µmol. After the cells were treated with the compound for 24 h, the CCK8 detection kit was used, wherein the cell viability was calculated based on the absorbance values detected by a microplate reader. Data processing was performed using GraphPad Prism software to plot the IC50 curve.

[6] = IP 2.5 mg/kg, 0.5 hr, individual animals, 2.5 mg/kg
[7] = IP 2.5 mg/kg, 24 hr, individual animals
[8] = IP 2.5 mg/kg, 24 hr, mean of 3 animals

## CCOC(=O)c1[nH]c(C)c(CCC(=O)N2CCCC(C(=O)NCCN3CCCCCC3)C2)c1C (centres unmarked) [compound of Formula I, ETHYL4-[3-(3-{[2-(AZEPAN-1-YL)ETHYL]CARBAMOYL}PIPERIDIN-1-YL)-3-OXOPROPYL]-3, 5-DIMETHYL-1H-PYRROLE-2-CARBOXYLATE]
[1]; APP SW + intervention, IP 2.5 mg/kg for 1 month, brain slices, individual neurons, 2.5 mg/kg
  dendritic spine density of hippocampal neurons (normalized to the control group): 0.7721 and 0.7284 and 0.6276 and 0.7954 and 0.8425 and 0.7853
[1]; after compound intervention vs AD mice
  dendritic spine density of hippocampal neurons: increased
[2]; Balb/c, mouse, 2.5 mg/kg, IP 2.5 mg/kg, 0.5 hr, individual animals, read-out: Concentration (brain tissue)
  concentration at 0.5 h: 16.8 ng/mL
[2]; Balb/c, mouse, 2.5 mg/kg, IP 2.5 mg/kg, 0.5 hr, mean of 3 animals, read-out: Concentration (brain tissue) Mean
  concentration at 0.5 h: 13.8 ng/mL
[2]; Balb/c, mouse, IP 2.5 mg/kg, 0.5 hr, brain tissue vs blood
  Kp at 0.5 h: 0.037
[2]; [6]
  Concentration (brain tissue): 10.3 ng/mL and 14.4 ng/mL
[2]; IP 2.5 mg/kg, 4 hr, individual animals
  Concentration (brain tissue): BLOQ (BLOQ = Below LOQ, LOQ = 2.0 ng/mL)
[2]; IP 2.5 mg/kg, 4 hr, mean of 3 animals
  Concentration (brain tissue) Mean: BLOQ (BLOQ = Below LOQ, LOQ = 2.0 ng/mL)
[2]; [7]
  Concentration (brain tissue): BLOQ (BLOQ = Below LOQ, LOQ = 2.0 ng/mL)
[2]; [8]
  Concentration (brain tissue) Mean: BLOQ (BLOQ = Below LOQ, LOQ = 2.0 ng/mL)
[2]; brain tissue 0.5 h after single IP injection 2.5 mg/kg
  blood-brain barrier penetration: capable of crossing the blood-brain barrier
[3]; APP SW+intervention, compound 2.5 µmol for 24 h, individual neurons
  number of dendritic spines of neurons (normalized to the control group): 0.7841 and 0.7357 and 0.6856 and 0.8651 and 0.6806 and 0.6909 and 0.6481 and 0.7086
[3]; in vitro AD model (APPsw virus), after compound intervention, group comparison
  dendritic spine density: increased
[4]; Balb/c, mouse, serum, ip, 2.5 mg/kg, IP 2.5 mg/kg, 0.25 hr, individual animals, read-out: Concentration (blood)
  concentration at 0.25 h: 369 ng/mL
[4]; Balb/c, mouse, serum, ip, 2.5 mg/kg, IP 2.5 mg/kg, 0.25 hr, mean of 3 animals, read-out: Concentration (blood) Mean
  concentration at 0.25 h: 423 ng/mL
[4]; Balb/c, mouse, serum, ip, 2.5 mg/kg, IP 2.5 mg/kg, 0.5 hr, individual animals, read-out: Concentration (blood)
  concentration at 0.5 h: 364 ng/mL
[4]; Balb/c, mouse, serum, ip, 2.5 mg/kg, IP 2.5 mg/kg, 0.5 hr, mean of 3 animals, read-out: Concentration (blood) Mean
  concentration at 0.5 h: 374 ng/mL
[4]; Balb/c, mouse, serum, ip, 2.5 mg/kg, IP 2.5 mg/kg, 1 hr, mean of 3 animals
  concentration at 1 h: 145 ng/mL
[4]; Balb/c, mouse, serum, ip, 2.5 mg/kg, IP 2.5 mg/kg, 2 hr, mean of 3 animals
  concentration at 2 h: 36.1 ng/mL
[4]; Balb/c, mouse, serum, ip, 2.5 mg/kg, IP 2.5 mg/kg, 4 hr, mean of 3 animals
  concentration at 4 h: 5.14 ng/mL
[4]; IP 2.5 mg/kg, 0.25 hr, individual animals, 2.5 mg/kg
  Concentration (blood): 350 ng/mL and 551 ng/mL
[4]; [6]
  Concentration (blood): 328 ng/mL and 431 ng/mL
[4]; IP 2.5 mg/kg, 1 hr, individual animals, 2.5 mg/kg
  Concentration (blood): 118 ng/mL and 217 ng/mL and 99.3 ng/mL
[4]; IP 2.5 mg/kg, 2 hr, individual animals, 2.5 mg/kg
  Concentration (blood): 22.7 ng/mL and 63.7 ng/mL and 22.0 ng/mL
[4]; IP 2.5 mg/kg, 4 hr, individual animals, 2.5 mg/kg
  Concentration (blood): 3.63 ng/mL and 8.64 ng/mL and 3.15 ng/mL
[4]; IP 2.5 mg/kg, 6 hr, individual animals
  Concentration (blood): BLOQ (BLOQ = Below LOQ, LOQ = 2.0 ng/mL)
[4]; IP 2.5 mg/kg, 6 hr, mean of 3 animals
  Concentration (blood) Mean: BLOQ (BLOQ = Below LOQ, LOQ = 2.0 ng/mL)
[4]; IP 2.5 mg/kg, 8 hr, individual animals
  Concentration (blood): BLOQ (BLOQ = Below LOQ, LOQ = 2.0 ng/mL)
[4]; IP 2.5 mg/kg, 8 hr, mean of 3 animals
  Concentration (blood) Mean: BLOQ (BLOQ = Below LOQ, LOQ = 2.0 ng/mL)
[4]; [7]
  Concentration (blood): BLOQ (BLOQ = Below LOQ, LOQ = 2.0 ng/mL)
[4]; [8]
  Concentration (blood) Mean: BLOQ (BLOQ = Below LOQ, LOQ = 2.0 ng/mL)
[4]; single IP injection 2.5 mg/kg, after 6 h
  blood concentration of the compound: undetectable
[5]; 5 µmol
  viability at 24 h, 5 µmol: 96.6%
[5]; 10 µmol
  viability at 24 h, 10 µmol: 109%
[5]; 20 µmol
  viability at 24 h, 20 µmol: 93.1%
[5]; 40 µmol
  viability at 24 h, 40 µmol: 86.7%
[5]; 80 µmol
  viability at 24 h, 80 µmol: 22.7%
[5]; 160 µmol
  viability at 24 h, 160 µmol: 27.2%
